Results reported in ChEMBL document CHEMBL1201862, “PubChem BioAssay data set” (2004).
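Interpolation was linear, between the two tested concentrations surrounding the appropriate level; five concentrations were tested over 48 hours in 96-well plates. GI50 marks 50% less growth.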 Active and inactive are the calls of the source. Cut-off read from the data, not from the text of the source: active = GI50 up to about 1.1 µM and inactive = higher.

Assays:
Experiment in all cases: DTP human tumour cell line panel, 48 h
MOLT-4 = tested on: MOLT-4
OVCAR-8 = tested on: OVCAR-8
HL-60 = tested on: HL-60
NCI-H460 = tested on: NCI-H460
SK-MEL-5 = tested on: SK-MEL-5
SW-620 = tested on: SW-620
RPMI-8226 = tested on: RPMI-8226
COLO 205 = tested on: COLO 205
NCI-H522 = tested on: NCI-H522
HT-29 = tested on: HT-29
Malme-3M = tested on: Malme-3M
K562 = tested on: K562
SR = tested on: SR
UO-31 = tested on: UO-31
SF-539 = tested on: SF-539
RXF 393 = tested on: RXF 393
SF-268 = tested on: SF-268
NCI-H226 = tested on: NCI-H226
MDA-MB-231 = tested on: MDA-MB-231
DU-145 = tested on: DU-145

Measured: GI50

CCCCC(C)C(OC(=O)CC(CC(=O)O)C(=O)O)C(CC(C)CC(O)CCCCC(O)CC(O)C(C)N)OC(=O)CC(CC(=O)O)C(=O)O (stereo not drawn)
inactive: MOLT-4 > 100 µM | OVCAR-8 > 100 µM | HL-60 > 69.8 µM | NCI-H460 > 100 µM | SK-MEL-5 > 100 µM | SW-620 > 100 µM | RPMI-8226 > 100 µM | COLO 205 > 100 µM | NCI-H522 > 100 µM | HT-29 > 100 µM | Malme-3M > 100 µM | K562 > 100 µM | SR > 100 µM | UO-31 > 100 µM | SF-539 > 100 µM | RXF 393 > 48.8 µM | SF-268 > 100 µM | NCI-H226 > 100 µM

O=C1CC(=O)N(CCc2ccccc2)S(=O)(=O)N1CCc1ccccc1
inactive: MOLT-4 20.3 µM | OVCAR-8 > 10 µM | HL-60 19.1 µM | NCI-H460 27.7 µM | SK-MEL-5 18.7 µM | SW-620 31.8 µM | RPMI-8226 24.4 µM | COLO 205 22.4 µM | NCI-H522 19.5 µM | HT-29 23 µM | Malme-3M 26 µM | K562 23.7 µM | SR 22.7 µM | UO-31 21.8 µM | SF-539 22.6 µM | RXF 393 34.1 µM | SF-268 29.1 µM

Cc1cn(C2CC(n3cc(Cn4cc(F)c(=O)[nH]c4=O)nn3)C(CO)O2)c(=O)[nH]c1=O (stereo not drawn)
inactive: MOLT-4 > 100 µM | OVCAR-8 > 100 µM | HL-60 43.7 µM | MDA-MB-231 > 100 µM | SK-MEL-5 > 100 µM | SW-620 > 100 µM | RPMI-8226 > 100 µM | COLO 205 > 100 µM | Malme-3M > 100 µM | UO-31 > 100 µM | SF-539 > 100 µM | RXF 393 > 100 µM | SF-268 > 100 µM | DU-145 > 100 µM | NCI-H226 > 100 µM

O=C(CC1(O)C(=O)Nc2c(Cl)ccc(Cl)c21)c1ccc2ccccc2c1 (stereo not drawn)
inactive: MOLT-4 10.8 µM | OVCAR-8 15.5 µM | HL-60 1.73 µM | NCI-H460 9.2 µM | SK-MEL-5 5.65 µM | SW-620 3.36 µM | RPMI-8226 6.75 µM | COLO 205 14.9 µM | NCI-H522 2.88 µM | HT-29 2.43 µM | Malme-3M 12.5 µM | K562 2.35 µM | SR 3.21 µM | UO-31 18.1 µM | SF-539 13.5 µM | RXF 393 11.6 µM | SF-268 14.5 µM | NCI-H226 19.2 µM

NNC(=O)/C(=C/c1ccc(Cl)cc1Cl)NC(=O)c1ccccc1
inactive: MOLT-4 60.5 µM | OVCAR-8 > 100 µM | HL-60 > 100 µM | NCI-H460 > 100 µM | SK-MEL-5 > 100 µM | SW-620 > 100 µM | RPMI-8226 86.7 µM | COLO 205 > 100 µM | NCI-H522 > 100 µM | HT-29 > 100 µM | Malme-3M > 100 µM | K562 71.4 µM | SR > 100 µM | UO-31 > 100 µM | SF-539 > 100 µM | RXF 393 > 100 µM | SF-268 > 100 µM | NCI-H226 > 100 µM

Cc1c(C(=O)C(=O)c2ccccc2)c(C)c(C(=O)C(=O)c2ccccc2)c(C)c1C(=O)C(=O)c1ccccc1
inactive: MOLT-4 > 100 µM | OVCAR-8 > 100 µM | HL-60 > 100 µM | MDA-MB-231 > 100 µM | NCI-H460 > 100 µM | SK-MEL-5 > 100 µM | SW-620 > 100 µM | RPMI-8226 > 100 µM | COLO 205 > 100 µM | NCI-H522 > 100 µM | HT-29 > 100 µM | K562 > 100 µM | SR > 100 µM | UO-31 > 100 µM | SF-539 > 100 µM | SF-268 > 100 µM

O=c1ncccn1[C@@H]1O[C@H](CO)[C@H](O)C1O (stereo partly drawn)
inactive: MOLT-4 61.7 µM | OVCAR-8 > 74.5 µM | HL-60 47.3 µM | NCI-H460 47.9 µM | SK-MEL-5 > 100 µM | SW-620 > 100 µM | RPMI-8226 > 74.5 µM | COLO 205 > 88.7 µM | NCI-H522 > 88.5 µM | HT-29 > 95.1 µM | Malme-3M > 100 µM | K562 52.4 µM | SR 43.6 µM | UO-31 > 100 µM | SF-539 > 75.3 µM | RXF 393 80.9 µM | SF-268 71.8 µM | NCI-H226 > 100 µM

COC(=O)C1=C(C(=O)OC)N(C(C)C)[C@H]2C(C(=O)OC)=C(C(=O)OC)N(C(C)C)[C@@H]12
inactive: MOLT-4 71 µM | OVCAR-8 > 100 µM | HL-60 61.5 µM | NCI-H460 > 100 µM | SK-MEL-5 > 100 µM | SW-620 > 100 µM | RPMI-8226 84.1 µM | COLO 205 > 100 µM | NCI-H522 > 100 µM | HT-29 > 100 µM | Malme-3M > 100 µM | K562 > 100 µM | SR 48 µM | UO-31 > 100 µM | SF-539 > 100 µM | RXF 393 > 100 µM | SF-268 > 100 µM | NCI-H226 > 100 µM
